Patent US7655453B2, “Recombinant Candida rugosa lipases” (Academia Sinica, priority 2001, dated 2010)

Experiments:
Type in all cases: biochemical
[1] = target: Candida rugosa lipase 4 (LIP4), native, recombinant (Diutina rugosa, UniProt P32948); test: Kinetic parameters of hydrolysis of cholesteryl linoleate by LIP4; settings: 37° C., pH 7.0; LIP4 39 nM; average of three independent experiments
Text: (§1) Construction of expression vectors The E. coli expression vectors pET23a-LIP4-S19 and pET23a-trx-LIP4-S19 were constructed as described in Tang et al. (2000) Protein Exp. Purif. 20: 308-313. Open-reading frames of LIP1, LIP2, LIP3, and LIP5 without the leader sequence were obtained by reverse transcription-polymerase chain reaction (RT-PCR). See Longhi et al. (1992) Biochim. Biophy. […] The chimeric DNA sequences were constructed by replacing the SphI(184)-BstXI(304) restriction DNA fragment of LIP4 with the corresponding fragments of LIP1, LIP2, LIP3, or LIP5, respectively. The resulting sequences encode mature chimeric C. rugosa lipases, denoted as TrX-LIP4/lid1, TrX-LIP4/lid2, TrX-LIP4/lid3, and TrX-LIP4/lid5, and were confirmed by DNA sequencing.
(§2) Preparation of recombinant LIP4 from E. coli. E. coli strain AD494(DE3) (Novagen, Milwaukee, Wis.) harboring recombinant plasmid was grown overnight at 37° C. in Luria-Bertani (LB) broth supplemented with 50 μg/mL ampicillin and 15 μg/mL kanamycin. The cells were then diluted 20-fold into fresh medium and incubated with shaking at 25° C. After adding IPTG to give a final concentration of 0.05 mM, the cells were incubated at 10° C. until OD600 reached 1.0.
(§3) Purification of recombinant LIP4. After induction, the AD494(DE3) transformants were harvested by centrifugation at 4000 g and 4° C. for 10 min. […]

[2] = tested on: Candida rugosa lipase 4 chimera Trx-LIP4/lid5 (lid region residues 63-94 of LIP4 exchanged with that of LIP5; thioredoxin fusion); test: Kinetic parameters of hydrolysis of cholesteryl linoleate by Trx-LIP4/lid5; settings: 37° C., pH 7.0; Trx-LIP4/lid5 66 nM; average of three independent experiments
Text: as §1, §2, §3

[3] = tested on: Candida rugosa lipase 4 chimera Trx-LIP4/lid1 (lid region residues 63-94 of LIP4 exchanged with that of LIP1; thioredoxin fusion); test: Kinetic parameters of hydrolysis of cholesteryl linoleate by Trx-LIP4/lid1; settings: 37° C., pH 7.0; Trx-LIP4/lid1 11 nM; average of three independent experiments
Text: as §1, §2, §3

[4] = tested on: Candida rugosa lipase 4 chimera Trx-LIP4/lid3 (lid region residues 63-94 of LIP4 exchanged with that of LIP3; thioredoxin fusion); test: Kinetic parameters of hydrolysis of cholesteryl linoleate by Trx-LIP4/lid3; settings: 37° C., pH 7.0; Trx-LIP4/lid3 58 nM; average of three independent experiments
Text: as §1, §2, §3

[5] = tested on: Candida rugosa lipase 4 chimera Trx-LIP4/lid2 (lid region residues 63-94 of LIP4 exchanged with that of LIP2; thioredoxin fusion); test: Kinetic parameters of hydrolysis of cholesteryl linoleate by Trx-LIP4/lid2; settings: 37° C., pH 7.0; Trx-LIP4/lid2 86 nM; average of three independent experiments
Text: as §1, §2, §3

Sequence of Candida rugosa lipase 4 (LIP4), native, recombinant (P32948 3-549, looked up, natural form): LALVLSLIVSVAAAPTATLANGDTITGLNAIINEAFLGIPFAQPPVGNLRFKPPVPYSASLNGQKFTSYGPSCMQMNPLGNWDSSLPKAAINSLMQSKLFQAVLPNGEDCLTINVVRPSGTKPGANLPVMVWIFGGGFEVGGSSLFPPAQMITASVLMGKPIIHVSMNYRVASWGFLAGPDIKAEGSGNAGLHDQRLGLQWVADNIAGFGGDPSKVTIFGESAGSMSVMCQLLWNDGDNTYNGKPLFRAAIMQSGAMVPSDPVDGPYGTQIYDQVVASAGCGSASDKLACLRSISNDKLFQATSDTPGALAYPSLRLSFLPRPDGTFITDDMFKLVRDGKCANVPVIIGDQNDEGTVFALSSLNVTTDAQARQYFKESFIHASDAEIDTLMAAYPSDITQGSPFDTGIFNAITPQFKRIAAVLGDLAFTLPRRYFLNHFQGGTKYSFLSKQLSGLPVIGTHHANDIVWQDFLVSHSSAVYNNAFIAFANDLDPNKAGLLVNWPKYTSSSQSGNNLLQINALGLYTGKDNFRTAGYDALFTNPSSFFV

With CCCCC/C=C\C/C=C\CCCCCCCC(=O)O[C@H]1CC[C@@]2(C)C(=CC[C@H]3[C@@H]4CC[C@H]([C@H](C)CCCC(C)C)[C@@]4(C)CC[C@@H]32)C1 [cholesteryl linoleate] the Km [1] was 41 ± 5 µM, the Km [2] was 34 ± 1 µM and the Vmax [2] was 70 ± 4.8 10^−3 μmol/min/mg. The Km [3] was 103 ± 5 µM, the Vmax [3] was 28 ± 1 10^−3 μmol/min/mg and the Km [4] was 46 ± 1 µM. The Vmax [4] was 231 ± 14 10^−3 μmol/min/mg, the Km [5] was 74 ± 3 µM and the Vmax [5] was 1851 ± 24 10^−3 μmol/min/mg.
